From PubChem BioAssay AID330 (DTP/NCI, 2004)
Values joined by “and” are separate entries in the source; they are usually repeats but may differ in a detail not shown here. Equal values may be shown once. Inconclusive results and toxic doses are left out.

Test system: P388 leukemia ip, CD2F1 mice, survival T/C
Assay: NCI In Vivo Anticancer Drug Screen. Data for tumor model P388 Leukemia (intraperitoneal) in CD2F1 (CDF1) mice
Conditions: endpoint: median survival time, higher = longer survival
Procedure, shortened: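 Mice carrying the transplanted tumor received test compound or vehicle. Survival was recorded in each group, and the value is the treated-group measurement divided by that of the vehicle-treated control group.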

[1] = dose: 50.0 mg/kg/injection, schedule: Q01DX005 (ip), vehicle: saline with Tween-80
[2] = dose: 100.0 mg/kg/injection, schedule: Q01DX005 (ip), vehicle: saline with Tween-80
[3] = dose: 200.0 mg/kg/injection, schedule: Q01DX005 (ip), vehicle: saline with Tween-80
[4] = dose: 60.0 mg/kg/injection, schedule: Q01DX005 (ip), vehicle: saline with Tween-80
[5] = dose: 120.0 mg/kg/injection, schedule: Q01DX005 (ip), vehicle: saline with Tween-80
[6] = dose: 240.0 mg/kg/injection, schedule: Q01DX005 (ip), vehicle: saline with Tween-80
[7] = dose: 50.0 mg/kg/injection, schedule: Q01DX005 (ip), vehicle: Klucel (hydroxypropylcellulose) (HPC)
[8] = dose: 100.0 mg/kg/injection, schedule: Q01DX005 (ip), vehicle: Klucel (hydroxypropylcellulose) (HPC)
[9] = dose: 200.0 mg/kg/injection, schedule: Q01DX005 (ip), vehicle: Klucel (hydroxypropylcellulose) (HPC)
[10] = dose: 12.5 mg/kg/injection, schedule: Q01DX005 (ip), vehicle: saline with Tween-80
[11] = dose: 25.0 mg/kg/injection, schedule: Q01DX005 (ip), vehicle: saline with Tween-80
[12] = dose: 12.5 mg/kg/injection, schedule: Q01DX009 (ip), vehicle: saline
[13] = dose: 100.0 mg/kg/injection, schedule: Q01DX001 (ip), vehicle: Klucel (hydroxypropylcellulose) (HPC)
[14] = dose: 200.0 mg/kg/injection, schedule: Q01DX001 (ip), vehicle: Klucel (hydroxypropylcellulose) (HPC)
[15] = dose: 400.0 mg/kg/injection, schedule: Q01DX001 (ip), vehicle: Klucel (hydroxypropylcellulose) (HPC)
[16] = dose: 50.0 mg/kg/injection, schedule: Q04DX002 (ip), vehicle: saline with Tween-80
[17] = dose: 100.0 mg/kg/injection, schedule: Q04DX002 (ip), vehicle: saline with Tween-80
[18] = dose: 60.0 mg/kg/injection, schedule: Q01DX005 (ip), vehicle: Klucel (hydroxypropylcellulose) (HPC)
[19] = dose: 120.0 mg/kg/injection, schedule: Q01DX005 (ip), vehicle: Klucel (hydroxypropylcellulose) (HPC)
[20] = dose: 50.0 mg/kg/injection, schedule: Q01DX009 (ip), vehicle: saline with Tween-80
[21] = dose: 100.0 mg/kg/injection, schedule: Q01DX009 (ip), vehicle: saline with Tween-80
[22] = dose: 200.0 mg/kg/injection, schedule: Q01DX009 (ip), vehicle: saline with Tween-80

COc1ccc(C(=O)Nc2ccccc2-c2ccccc2)cc1OC
T/C [1]: 105 % of control
T/C [2]: 97 % of control
T/C [3]: 103 % of control

CN1NC(c2ccccc2)=C(C#N)C(=O)CC1c1ccco1 (stereo not given)
T/C [4]: 102 % of control
T/C [5]: 86 % of control
T/C [6]: 97 % of control

CN(NC(=O)C(=O)NCc1ccco1)C(=O)NC1CCCCC1
T/C [7]: 103 % of control
T/C [8]: 100 % of control
T/C [9]: 96 % of control

COC(=O)C1=C(OC)C(C(=O)c2ccccc2)NC1=O (stereo not given)
T/C [4]: 111 % of control
T/C [5]: 100 % of control
T/C [6]: 99 % of control

COc1ccc2nc(N/N=C/c3cccc(C)n3)cc(C)c2c1
T/C [10]: 100 % of control
T/C [11]: 96 % of control
T/C [1]: 94 % of control and 95 % of control
T/C [2]: 114 % of control
T/C [3]: 116 % of control

CP1(=S)C=C(NC2CCCCC2)CC1 (stereo not given)
T/C (dose: 12.5 mg/kg/injection, schedule: Q01DX009 (ip), vehicle: Klucel (hydroxypropylcellulose) (HPC)): 99 % of control
T/C (dose: 25.0 mg/kg/injection, schedule: Q01DX009 (ip), vehicle: Klucel (hydroxypropylcellulose) (HPC)): 107 % of control
T/C (dose: 50.0 mg/kg/injection, schedule: Q01DX009 (ip), vehicle: Klucel (hydroxypropylcellulose) (HPC)): 110 % of control
T/C (dose: 100.0 mg/kg/injection, schedule: Q01DX009 (ip), vehicle: Klucel (hydroxypropylcellulose) (HPC)): 92 % of control
T/C (dose: 200.0 mg/kg/injection, schedule: Q01DX009 (ip), vehicle: Klucel (hydroxypropylcellulose) (HPC)): 95 % of control

O=c1[nH]cnc2nc(N3CCN(c4ccccc4)CC3)sc12
T/C [4]: 87 % of control
T/C [5]: 87 % of control
T/C [6]: 87 % of control

C[N+](C)(C)CCC(=O)c1ccc(O)cc1
T/C (dose: 3.13 mg/kg/injection, schedule: Q01DX009 (ip), vehicle: saline): 97 % of control
T/C (dose: 6.25 mg/kg/injection, schedule: Q01DX009 (ip), vehicle: saline): 100 % of control
T/C [12]: 118 % of control

COc1c(C)cc(C)c(CO)c1-c1c(CO)c(C)cc(C)c1OC
T/C [13]: 99 % of control
T/C [14]: 101 % of control
T/C [15]: 99 % of control

CCN(CC)CCNc1cc(C)nc2c1ccc1c2ccc2c(NCCN(CC)CC)cc(C)nc21
T/C (dose: 12.5 mg/kg/injection, schedule: Q01DX009 (ip), vehicle: water): 104 % of control
T/C (dose: 25.0 mg/kg/injection, schedule: Q01DX009 (ip), vehicle: water): 113 % of control
T/C (dose: 50.0 mg/kg/injection, schedule: Q01DX009 (ip), vehicle: water): 97 % of control

CC(=O)Nc1nnc(-c2cc(=O)c3cc(Cl)ccc3o2)s1
T/C [1]: 101 % of control
T/C [2]: 92 % of control
T/C [3]: 97 % of control

O=[N+]([O-])c1ccc(/C(=C/c2ccccc2)S(=O)(=O)C(Cl)(Cl)Cl)o1
T/C [12]: 102 % of control and 97 % of control
T/C (dose: 25.0 mg/kg/injection, schedule: Q01DX009 (ip), vehicle: saline): 104 % of control and 92 % of control
T/C (dose: 50.0 mg/kg/injection, schedule: Q01DX009 (ip), vehicle: saline): 104 % of control and 92 % of control
T/C (dose: 50.0 mg/kg/injection, schedule: Q01DX009 (ip), vehicle: suspension in saline): 100 % of control
T/C (dose: 100.0 mg/kg/injection, schedule: Q01DX009 (ip), vehicle: saline): 101 % of control and 112 % of control

CCOC(=O)c1ccc(NC(=O)c2ccccc2)cc1
T/C (dose: 50.0 mg/kg/injection, schedule: Q01DX001 (ip), vehicle: Klucel (hydroxypropylcellulose) (HPC)): 96 % of control
T/C [13]: 90 % of control
T/C [14]: 92 % of control
T/C [15]: 95 % of control

CCOC(=O)C(C)(C)CN(CC(C)(C)C(=O)OCC)C(C)(C)C
T/C (dose: 100.0 mg/kg/injection, schedule: Q04DX003 (ip), vehicle: saline with Tween-80): 109 % of control
T/C (dose: 200.0 mg/kg/injection, schedule: Q04DX003 (ip), vehicle: saline with Tween-80): 109 % of control
T/C (dose: 400.0 mg/kg/injection, schedule: Q04DX003 (ip), vehicle: saline with Tween-80): 122 % of control

CC1(C)Oc2c(C=O)c(O)cc3c2C2CC1CCC2(C)O3 (stereo not given)
T/C (dose: 9.0 mg/kg/injection, schedule: Q01DX009 (ip), vehicle: saline with Tween-80): 102 % of control
T/C (dose: 18.0 mg/kg/injection, schedule: Q01DX009 (ip), vehicle: saline with Tween-80): 96 % of control
T/C (dose: 36.0 mg/kg/injection, schedule: Q01DX009 (ip), vehicle: saline with Tween-80): 102 % of control

C[n+]1c(-c2ccccc2)c2ccccn2c1Sc1n2ccccc2c(-c2ccccc2)[n+]1C
T/C (dose: 1.56 mg/kg/injection, schedule: Q01DX009 (ip), vehicle: Klucel (hydroxypropylcellulose) (HPC)): 100 % of control
T/C (dose: 3.12 mg/kg/injection, schedule: Q01DX009 (ip), vehicle: Klucel (hydroxypropylcellulose) (HPC)): 102 % of control
T/C (dose: 6.25 mg/kg/injection, schedule: Q01DX009 (ip), vehicle: Klucel (hydroxypropylcellulose) (HPC)): 90 % of control and 97 % of control

CS(=O)(=O)CS(=O)(=O)OCCBr
T/C [10]: 98 % of control
T/C [11]: 123 % of control
T/C [1]: 159 % of control
T/C [2]: 226 % of control

O=c1c(-c2ccccc2)cc2c(-c3ccccc3)oc(-c3ccccc3)c2cc1-c1ccccc1
T/C [16]: 90 % of control
T/C [17]: 94 % of control
T/C (dose: 200.0 mg/kg/injection, schedule: Q04DX002 (ip), vehicle: saline with Tween-80): 92 % of control

Oc1cc2c(cc1C(c1ccc(Cl)cc1)N1CCN(C(c3ccc(Cl)cc3)c3cc4c(cc3O)OCO4)CC1)OCO2 (stereo not given)
T/C [18]: 89 % of control
T/C [19]: 88 % of control

CCCCC(NC(=O)CNC(=O)OCc1ccccc1)C(=O)O (stereo not given)
T/C [7]: 90 % of control
T/C [8]: 104 % of control
T/C [9]: 95 % of control

Nc1[nH]c(=O)[nH]c(=O)c1N
T/C [20]: 100 % of control
T/C [21]: 100 % of control
T/C [22]: 100 % of control

c1cnc2c(c1)n[n+]1[n-]c3ccccc3n21
T/C [18]: 96 % of control
T/C [19]: 91 % of control

COc1ccc(-c2cc(-c3ccccc3)[nH]c2-c2ccccc2)cc1
T/C (dose: 100.0 mg/kg/injection, schedule: Q04DX002 (ip), vehicle: saline): 98 % of control
T/C (dose: 200.0 mg/kg/injection, schedule: Q04DX002 (ip), vehicle: saline): 105 % of control
T/C (dose: 400.0 mg/kg/injection, schedule: Q04DX002 (ip), vehicle: saline): 100 % of control

CSC1SC(C#N)=C(N)C1[n+]1ccccc1 (stereo not given)
T/C (dose: 25.0 mg/kg/injection, schedule: Q04DX002 (ip), vehicle: saline with Tween-80): 105 % of control
T/C [16]: 105 % of control
T/C [17]: 104 % of control

CCOC(=O)CC1(C)c2nc(NC(C)=O)sc2Cc2sc(NC(C)=O)nc21
T/C (dose: 60.0 mg/kg/injection, schedule: Q01DX005 (ip), vehicle: saline): 101 % of control
T/C (dose: 120.0 mg/kg/injection, schedule: Q01DX005 (ip), vehicle: saline): 100 % of control
T/C (dose: 240.0 mg/kg/injection, schedule: Q01DX005 (ip), vehicle: saline): 100 % of control

C=C(C#N)N(C)c1ccccc1
T/C (dose: 3.12 mg/kg/injection, schedule: Q01DX005 (ip), vehicle: Klucel (hydroxypropylcellulose) (HPC)): 94 % of control
T/C (dose: 6.25 mg/kg/injection, schedule: Q01DX005 (ip), vehicle: Klucel (hydroxypropylcellulose) (HPC)): 111 % of control
T/C (dose: 12.5 mg/kg/injection, schedule: Q01DX005 (ip), vehicle: Klucel (hydroxypropylcellulose) (HPC)): 94 % of control

CSc1nc(Cl)c(Cl)cc1Cl
T/C [20]: 100 % of control
T/C [21]: 97 % of control
T/C [22]: 91 % of control

N#Cc1ccccc1N=Nc1ccccc1
T/C (dose: 50.0 mg/kg/injection, schedule: Q01DX009 (ip), vehicle: saline + alcohol): 94 % of control
T/C (dose: 100.0 mg/kg/injection, schedule: Q01DX009 (ip), vehicle: saline + alcohol): 95 % of control
T/C (dose: 200.0 mg/kg/injection, schedule: Q01DX009 (ip), vehicle: saline + alcohol): 97 % of control
